Data: patent US8680275B2, “Fused heterocyclic compounds as orexin receptor modulators” (Janssen Pharmaceutica NV, priority 2009, dated 2014)
Where two headings read alike, the source gives them in different places.

Experiments:
human orexin-2 receptor = human orexin-2 receptor (Homo sapiens (Human), UniProt O43614); test: Human orexin 2 receptor radioligand binding ([3H]-EMPA competition); details: HEK293 cells stably expressing human orexin-2 receptor; [3H]-EMPA 5 nM final; read-out: OR-2 Ki
Procedure, shortened: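 Competition binding on HEK293 cells stably expressing human orexin-2 receptor, using 5 nM final [3H]-EMPA in PBS, compounds 0.1 nM to 10 μM (DMSO ≤0.1%). 60 min at room temperature, then filtration and scintillation counting; nonspecific binding defined with 10 μM of a reference antagonist.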

human orexin 1 receptor = human orexin 1 receptor (Homo sapiens (Human), UniProt O43613); test: Human orexin 1 receptor radioligand binding ([3H]-SB674042 competition); details: read-out: OR-1 Ki
Procedure, shortened: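 CHO cells stably expressing human OX1R incubated 60 min at room temperature with [3H]-SB674042 and compounds (7 concentrations, 0.1 nM–10 μM; DMSO ≤0.1%) in PBS. Nonspecific binding defined with 10 μM of a reference urea antagonist; bound radioactivity measured by filtration and scintillation counting.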

[1] = CHO cells stably expressing human orexin 1 receptor, [3H]-SB674042 4 nM final

human orexin 1 receptor, sequence (O43613 whole entry): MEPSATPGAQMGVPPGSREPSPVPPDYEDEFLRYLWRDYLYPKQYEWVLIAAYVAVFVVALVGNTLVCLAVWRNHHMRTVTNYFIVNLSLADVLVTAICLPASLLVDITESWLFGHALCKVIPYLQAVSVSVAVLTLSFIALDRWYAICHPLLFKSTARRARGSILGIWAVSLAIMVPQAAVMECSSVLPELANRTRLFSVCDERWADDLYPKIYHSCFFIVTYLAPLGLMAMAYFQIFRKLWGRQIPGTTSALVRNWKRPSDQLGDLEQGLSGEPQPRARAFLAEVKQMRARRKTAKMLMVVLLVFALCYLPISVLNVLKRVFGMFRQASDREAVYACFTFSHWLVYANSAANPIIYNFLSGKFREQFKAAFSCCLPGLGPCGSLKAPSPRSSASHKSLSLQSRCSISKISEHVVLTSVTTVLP
human orexin-2 receptor, sequence (O43614 whole entry): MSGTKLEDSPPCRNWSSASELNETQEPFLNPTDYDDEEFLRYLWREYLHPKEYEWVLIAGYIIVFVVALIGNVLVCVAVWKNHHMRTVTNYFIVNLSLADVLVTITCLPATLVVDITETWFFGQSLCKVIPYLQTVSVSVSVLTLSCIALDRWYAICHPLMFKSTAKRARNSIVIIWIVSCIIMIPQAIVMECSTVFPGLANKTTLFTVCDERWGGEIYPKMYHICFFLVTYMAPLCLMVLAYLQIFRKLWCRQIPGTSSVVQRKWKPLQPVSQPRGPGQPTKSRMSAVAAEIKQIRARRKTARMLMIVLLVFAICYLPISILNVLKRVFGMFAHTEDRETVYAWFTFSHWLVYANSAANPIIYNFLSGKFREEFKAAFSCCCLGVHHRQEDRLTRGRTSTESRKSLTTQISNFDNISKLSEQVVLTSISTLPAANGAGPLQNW

Row | Compound | Ki (human orexin-2 receptor) | Ki (human orexin 1 receptor; [1]) | Ki (human orexin 1 receptor)
1 | COc1ccnc(N2CC3CN(C(=O)c4ccccc4-c4cccs4)CC32)n1 (stereo not shown) [Example 62, 6-(4-Methoxypyrimidin-2-yl)-3-[(2-thiophen-2-ylphenyl)carbonyl]-3,6-diazabicyclo[3.2.0]heptane] | 123 nM | 5000 nM | –
2 | COc1ccnc(N2CC3CN(C(=O)c4ccccc4-c4ccccc4)CC32)n1 (stereo not shown) [Example 63, 3-(Biphenyl-2-ylcarbonyl)-6-(4-methoxypyrimidin-2-yl)-3,6-diazabicyclo[3.2.0]heptane] | 392 nM | 10000 nM | –
3 | CCOc1ccc2ccccc2c1C(=O)N1CC2CN(c3nc(OC)cc(OC)n3)C2C1 (stereo not shown) [Example 64, 6-(4,6-Dimethoxypyrimidin-2-yl)-3-[(2-ethoxynaphthalen-1-yl)carbonyl]-3,6-diazabicyclo[3.2.0]heptane] | 109 nM | 808 nM | –
4 | CCOc1ccc2ccccc2c1C(=O)N1CC2CN(c3nc(C)cc(C)n3)C2C1 (stereo not shown) [Example 65, 6-(4,6-Dimethylpyrimidin-2-yl)-3-[(2-ethoxynaphthalen-1-yl)carbonyl]-3,6-diazabicyclo[3.2.0]heptane] | 42 nM | 1070 nM | –
5 | Cc1cc(C)nc(N2CC3CN(C(=O)c4ccccc4-n4nccn4)CC32)n1 (stereo not shown) [Example 66, 6-(4,6-Dimethylpyrimidin-2-yl)-3-{[2-(2H-1,2,3-triazol-2-yl)phenyl]carbonyl}-3,6-diazabicyclo[3.2.0]heptane] | 163 nM | 9650 nM | –
6 | O=C(c1ccccc1-n1nccn1)N1CC2CN(c3nccc(-c4ccccc4)n3)C2C1 (stereo not shown) [Example 67, 6-(4-Phenylpyrimidin-2-yl)-3-{[2-(2H-1,2,3-triazol-2-yl)phenyl]carbonyl}-3,6-diazabicyclo[3.2.0]heptane] | 156 nM | 225 nM | –
7 | Cc1ccc(-n2nccn2)c(C(=O)N2CC3CN(c4nc(C)cc(C)n4)C3C2)c1 (stereo not shown) [Example 68, 6-(4,6-Dimethylpyrimidin-2-yl)-3-{[5-methyl-2-(2H-1,2,3-triazol-2-yl)phenyl]carbonyl}-3,6-diazabicyclo[3.2.0]heptane] | 192 nM | 5000 nM | –
8 | Cc1ccc(-n2nccn2)c(C(=O)N2CC3CN(c4nccc(-c5ccccc5)n4)C3C2)c1 (stereo not shown) [Example 69] | 61 nM | 128 nM | –
9 | O=C(c1cc(F)ccc1-n1nccn1)N1CC[C@H]2CN(c3cnnc(Cl)c3)[C@H]2C1 [Example 87, (1R,6S)-8-(6-Chloropyridazin-4-yl)-3-{[5-fluoro-2-(2H-1,2,3-triazol-2-yl)phenyl]carbonyl}-3,8-diazabicyclo[4.2.0]octane] | 1400 nM | ≥ 10000 nM | –
10 | Cc1cc(C)nc(N2C[C@@H]3CCN(C(=O)c4ccc(C)nc4-n4ccnn4)C[C@@H]32)n1 [Example 88, (1R,6S)-8-(4,6-Dimethylpyrimidin-2-yl)-3-{[6-methyl-2-(1H-1,2,3-triazol-1-yl)pyridin-3-yl]carbonyl}-3,8-diazabicyclo[4.2.0]octane] | 234 nM | 8200 nM | –
11 | Cc1cc(C)nc(N2C[C@@H]3CCN(C(=O)c4cccnc4C(F)(F)F)C[C@@H]32)n1 [Example 89, (1R,6S)-8-(4,6-Dimethylpyrimidin-2-yl)-3-{[2-(trifluoromethyl)pyridin-3-yl]carbonyl}-3,8-diazabicyclo[4.2.0]octane] | 220 nM | 10000 nM | –
12 | COc1ccc(C(=O)N2CC[C@H]3CN(c4nc(C)cc(C)n4)[C@H]3C2)c(-n2nccn2)c1 [Example 90, (1R,6S)-8-(4,6-Dimethylpyrimidin-2-yl)-3-{[4-methoxy-2-(2H-1,2,3-triazol-2-yl)phenyl]carbonyl}-3,8-diazabicyclo[4.2.0]octane] | 150 nM | ≥ 10000 nM | –
13 | Cc1cc(N2C[C@@H]3CCN(C(=O)c4ccc(C)nc4-n4ccnn4)C[C@@H]32)nc(C(F)(F)F)n1 [Example 91, (1R,6S)-3-{[6-Methyl-2-(1H-1,2,3-triazol-1-yl)pyridin-3-yl]carbonyl}-8-[6-methyl-2-(trifluoromethyl)pyrimidin-4-yl]-3,8-diazabicyclo[4.2.0]octane] | 520 nM | 5400 nM | –
14 | Cc1cc(N2C[C@@H]3CCN(C(=O)c4c(F)cccc4-c4ncccn4)C[C@@H]32)nc(C(F)(F)F)n1 [Example 92, (1R,6S)-3-[(2-Fluoro-6-pyrimidin-2-ylphenyl)carbonyl]-8-[6-methyl-2-(trifluoromethyl)pyrimidin-4-yl]-3,8-diazabicyclo[4.2.0]octane] | 84 nM | 220 nM | –
15 | Cc1ccc(C(=O)N2CC[C@H]3CN(c4nccc(C(F)(F)F)n4)[C@H]3C2)c(-n2ccnn2)n1 [Example 93, (1R,6S)-3-{[6-Methyl-2-(1H-1,2,3-triazol-1-yl)pyridin-3-yl]carbonyl}-8-[4-(trifluoromethyl)pyrimidin-2-yl]-3,8-diazabicyclo[4.2.0]octane] | 230 nM | 3700 nM | –
16 | O=C(c1cc(F)ccc1-n1nccn1)N1CC[C@H]2CN(c3nccc(C(F)(F)F)n3)[C@H]2C1 [Example 94, (1R,6S)-3-{[5-Fluoro-2-(2H-1,2,3-triazol-2-yl)phenyl]carbonyl}-8-[4-(trifluoromethyl)pyrimidin-2-yl]-3,8-diazabicyclo[4.2.0]octane] | 370 nM | 10000 nM | –
17 | O=C(c1c(F)cccc1-n1nccn1)N1CC[C@H]2CN(c3nccc(C(F)(F)F)n3)[C@H]2C1 [Example 95, (1R,6S)-3-{[2-Fluoro-6-(2H-1,2,3-triazol-2-yl)phenyl]carbonyl}-8-[4-(trifluoromethyl)pyrimidin-2-yl]-3,8-diazabicyclo[4.2.0]octane] | 23 nM | 625 nM | –
18 | Cc1cnc(C)c(N2C[C@@H]3CCN(C(=O)c4ccccc4-n4nccn4)C[C@@H]32)n1 [Example 96, (1R,6S)-8-(3,6-Dimethylpyrazin-2-yl)-3-{[2-(2H-1,2,3-triazol-2-yl)phenyl]carbonyl}-3,8-diazabicyclo[4.2.0]octane] | 258 nM | 5840 nM | –
19 | Cc1cnc(C)c(N2C[C@@H]3CCN(C(=O)c4cc(F)ccc4-n4nccn4)C[C@@H]32)n1 [Example 97, (1R,6S)-8-(3,6-Dimethylpyrazin-2-yl)-3-{[5-fluoro-2-(2H-1,2,3-triazol-2-yl)phenyl]carbonyl}-3,8-diazabicyclo[4.2.0]octane] | 1290 nM | 5020 nM | –
20 | Cc1cnc(C)c(N2C[C@@H]3CCN(C(=O)c4c(F)cccc4-n4nccn4)C[C@@H]32)n1 [Example 98, (1R,6S)-8-(3,6-Dimethylpyrazin-2-yl)-3-{[2-fluoro-6-(2H-1,2,3-triazol-2-yl)phenyl]carbonyl}-3,8-diazabicyclo[4.2.0]octane] | 274 nM | 4920 nM | –
21 | Cc1cnc(C)c(N2C[C@@H]3CCN(C(=O)c4cccc(F)c4-n4nccn4)C[C@@H]32)n1 [Example 99, (1R,6S)-8-(3,6-Dimethylpyrazin-2-yl)-3-{[3-fluoro-2-(2H-1,2,3-triazol-2-yl)phenyl]carbonyl}-3,8-diazabicyclo[4.2.0]octane] | 96 nM | 4140 nM | –
22 | Cc1cnc(N2C[C@@H]3CCN(C(=O)c4ccccc4-n4nccn4)C[C@@H]32)cn1 [Example 100, (1R,6S)-8-(5-Methylpyrazin-2-yl)-3-{[2-(2H-1,2,3-triazol-2-yl)phenyl]carbonyl}-3,8-diazabicyclo[4.2.0]octane] | 200 nM | 8700 nM | –
23 | Cc1cnc(N2C[C@@H]3CCN(C(=O)c4c(F)cccc4-n4nccn4)C[C@@H]32)cn1 [Example 101, (1R,6S)-3-{[2-Fluoro-6-(2H-1,2,3-triazol-2-yl)phenyl]carbonyl}-8-(5-methylpyrazin-2-yl)-3,8-diazabicyclo[4.2.0]octane] | 190 nM | 6600 nM | –
24 | Cc1cnc(N2C[C@@H]3CCN(C(=O)c4ccc(F)cc4-n4nccn4)C[C@@H]32)cn1 [Example 102, (1R,6S)-3-{[4-Fluoro-2-(2H-1,2,3-triazol-2-yl)phenyl]carbonyl}-8-(5-methylpyrazin-2-yl)-3,8-diazabicyclo[4.2.0]octane] | 420 nM | 10000 nM | –
25 | Cc1cnc(N2C[C@@H]3CCN(C(=O)c4cccc(F)c4-n4nccn4)C[C@@H]32)cn1 [Example 103, (1R,6S)-3-{[3-Fluoro-2-(2H-1,2,3-triazol-2-yl)phenyl]carbonyl}-8-(5-methylpyrazin-2-yl)-3,8-diazabicyclo[4.2.0]octane] | 360 nM | – | 10000 nM
26 | Cc1cnc(N2C[C@@H]3CCN(C(=O)c4cc(F)ccc4-n4nccn4)C[C@@H]32)cn1 [Example 104, (1R,6S)-3-{[5-Fluoro-2-(2H-1,2,3-triazol-2-yl)phenyl]carbonyl}-8-(5-methylpyrazin-2-yl)-3,8-diazabicyclo[4.2.0]octane] | 342 nM | 3540 nM | –
27 | Cc1nccnc1N1C[C@@H]2CCN(C(=O)c3ccccc3-n3nccn3)C[C@@H]21 [Example 105, (1R,6S)-8-(3-Methylpyrazin-2-yl)-3-{[2-(2H-1,2,3-triazol-2-yl)phenyl]carbonyl}-3,8-diazabicyclo[4.2.0]octane] | 10000 nM | 10000 nM | –
28 | Cc1nccnc1N1C[C@@H]2CCN(C(=O)c3c(F)cccc3-n3nccn3)C[C@@H]21 [Example 106, (1R,6S)-3-{[2-Fluoro-6-(2H-1,2,3-triazol-2-yl)phenyl]carbonyl}-8-(3-methylpyrazin-2-yl)-3,8-diazabicyclo[4.2.0]octane] | 10000 nM | 10000 nM | –
29 | Cc1nccnc1N1C[C@@H]2CCN(C(=O)c3ccc(F)cc3-n3nccn3)C[C@@H]21 [Example 108, (1R,6S)-3-{[4-Fluoro-2-(2H-1,2,3-triazol-2-yl)phenyl]carbonyl}-8-(3-methylpyrazin-2-yl)-3,8-diazabicyclo[4.2.0]octane] | 10000 nM | 10000 nM | –
